Series [1] concerns HeLa (Human Cervix epithelioid carcinoma cell line). The experiment in a line: Anti-cancer screening, HeLa cell proliferation. It is filed as cell-based. To be noted: for IC50: concentration required to inhibit 50% of the cell proliferation; for IC90: concentration required to inhibit 90% of the cell proliferation, read-out: MIC.
Series [2] concerns A549 (Human lung adenocarcinoma epithelial cell line). The experiment in a line: Anti-cancer screening, A549 cell proliferation. The format is cell-based. To be noted: for IC50: concentration required to inhibit 50% of the cell proliferation; for IC90: concentration required to inhibit 90% of the cell proliferation, read-out: MIC.
In series [3] the test system is THP-1 (Human acute monocytic leukemia cell line). The experiment in a line: Anti-cancer screening, THP-1 cell proliferation. It is filed as cell-based. To be noted: for IC50: concentration required to inhibit 50% of the cell proliferation; for IC90: concentration required to inhibit 90% of the cell proliferation, read-out: MIC.
Series [4] relates to Panc-1 (Human pancreas carcinoma cell line). The experiment in a line: Anti-cancer screening, Panc-1 cell proliferation. To be noted: for IC50: concentration required to inhibit 50% of the cell proliferation; for IC90: concentration required to inhibit 90% of the cell proliferation, read-out: MIC. It is filed as cell-based.
For series [5], the system named is M. Tuberculosis. The experiment in a line: Anti TB ex vivo infection model, dormant. The format is cell-based. The following applies: Mycobacterium tuberculosis.
Series [6] concerns M. Tuberculosis. The experiment in a line: Anti TB ex vivo infection model, active. It is filed as cell-based. The following applies: Mycobacterium tuberculosis.
The test system of series [7] is M. Tuberculosis H37Ra (DORMANT). Kind of series: Anti TB in vitro, dormant. The format is cell-based, Mycobacterium tuberculosis H37Ra. To be noted: Mycobacterium tuberculosis.
Series [8] relates to M. Tuberculosis H37Ra (ACTIVE). The experiment in a line: Anti TB in vitro, active. The following applies: Mycobacterium tuberculosis. It is filed as cell-based, Mycobacterium tuberculosis H37Ra.
The mark [9] stands for this setting: In Vitro, H37Ra DORMANT, read-out: IC 50.
[10] abbreviates: In Vitro, H37Ra DORMANT, read-out: MIC.
[11] abbreviates: In Vitro, H37Ra ACTIVE, read-out: IC 50.
Setting [12] is: In Vitro, H37Ra ACTIVE, read-out: MIC.

≈ marks a conversion by molar mass, not a printed value. Read-outs that look alike come from different tables or passages of the source.

Regarding `COC(=O)CC[C@@H](C)C1CCC2C3C([C@H](NC(C)C)C(=O)[C@@]21C)[C@@]1(C)CC[C@@H](OC(C)=O)C[C@H]1C[C@H]3OC(C)=O` (stereo partly drawn) [Compound 10, (3R,5S,7R,10S,11S,13R)-11-(isopropylamino)-17-((R)-5-methoxy-5-oxopentan-2-yl)-10,13-dimethyl-12-oxohexadecahydro-1H-cyclopenta[a]phenanthrene-3,7-diyl diacetate], the IC50 was 11.6 µg/mL in series [1], above 100 µg/mL in [2], above 100 µg/mL in [3] and above 100 µg/mL in series [4]. In addition, the IC90 in series [1], in series [2], in series [3] and in series [4] was above 100 µg/mL each time.

Broadly, the MIC is the lowest concentration found to suppress growth. `COC(=O)CC[C@@H](C)C1CCC2C3C([C@H](NC(=O)C(CO)NC(=O)OC(C)(C)C)C(=O)[C@@]21C)[C@@]1(C)CC[C@@H](OC(C)=O)C[C@H]1C[C@H]3OC(C)=O` (stereo partly drawn) [Compound 7, (3R,5S,7R,10S,11S,13R)-11-(2-((tert-butoxycarbonyl)amino)-3-hydroxypropanamido)-17-((R)-5-methoxy-5-oxopentan-2-yl)-10,13-dimethyl-12-oxohexadecahydro-1H-cyclopenta[a]phenanthrene-3,7-diyl diacetate]: the IC50 in the series on M. Tuberculosis [5] is 1.32 µg/mL; in series [1], 18.2 µg/mL; with M. Tuberculosis [6], 1.96 µg/mL; in series [2] it was above 100 µg/mL; in series [3] it was 76.2 µg/mL; in series [7] (setting [9]) it was 0.58 µg/mL. Further, the IC50 is 1.24 µg/mL in series [8] (setting [11]) and above 100 µg/mL in [4]. Moreover, the minimal inhibitory concentration (MIC) in the series with M. Tuberculosis [5] turned out to be 23.8 µg/mL; in the series with M. Tuberculosis [6] it was 27.3 µg/mL; in series [7] (setting [10]) it was 8.6 µg/mL; in [8] (setting [12]), 9.03 µg/mL. For the same molecule, the IC90 in series [1], in series [2], in series [3] and in series [4] was above 100 µg/mL in each case.

`CC(=O)O[C@H]1C(=O)[C@@]2(C)[C@H]([C@H](OC(=O)c3ccccc3)[C@]3(O)C[C@H](OC(=O)[C@H](O)[C@@H](NC(=O)c4ccccc4)c4ccccc4)C(C)=C1C3(C)C)[C@]1(OC(C)=O)CO[C@@H]1C[C@@H]2O` [Paclitaxel, reference compound]: the IC50 in series [1] stood at 0.0048 µg/mL (≈ 0.00562 µM); in series [2], 0.0035 µg/mL (≈ 0.0041 µM); in [3], 0.137 µg/mL (≈ 0.161 µM); in series [4], 0.128 µg/mL (≈ 0.15 µM). For the same molecule, the IC90 stood at 0.075 µg/mL (≈ 0.0878 µM) in series [1], 0.0706 µg/mL (≈ 0.0827 µM) in series [2], 5.81 µg/mL (≈ 6.81 µM) in [3] and 5.71 µg/mL (≈ 6.69 µM) in [4].

What is called melting point is the temperature, or range, at which the solid turns liquid. The molecule `COC(=O)CC[C@@H](C)C1CCC2C3C([C@H](NC(=O)C4CCCN4)C(=O)[C@@]21C)[C@@]1(C)CC[C@@H](OC(C)=O)C[C@H]1C[C@H]3OC(C)=O` (stereo partly drawn) [Compound 6, (3R,5S,7R,10S,11S,13R)-17-((R)-5-methoxy-5-oxopentan-2-yl)-10,13-dimethyl-12-oxo-11-(pyrrolidine-2-carboxamido)hexadecahydro-1H-cyclopenta[a]phenanthrene-3,7-diyl diacetate] showed a melting point of 102.6 to 103.8 °C. In series [1], the IC50 was above 100 µg/mL and the IC90 is above 100 µg/mL. For the same molecule, in series [2], the IC50 is above 100 µg/mL and the IC90 is above 100 µg/mL. In [3], the IC50 was above 100 µg/mL and the IC90 was above 100 µg/mL. In series [4], the IC50 was above 100 µg/mL and the IC90 is above 100 µg/mL.

On to `COC(=O)CC[C@@H](C)C1CCC2C3C([C@H](n4cc(-c5ccccc5)nn4)C(=O)[C@@]21C)[C@@]1(C)CC[C@@H](OC(C)=O)C[C@H]1C[C@H]3OC(C)=O` (stereo partly drawn) [Compound 1, (3R,5S,7R,10S,11S,13R)-17-((R)-5-methoxy-5-oxopentan-2-yl)-10,13-dimethyl-12-oxo-11-(4-phenyl-1H-1,2,3-triazol-1-yl)hexadecahydro-1H-cyclopenta[a]phenanthrene-3,7-diyl diacetate], for which the IC50 is 7.02 µg/mL in series [1], above 100 µg/mL in series [2], above 100 µg/mL in series [3] and above 100 µg/mL in series [4]. The IC90 in [1] was 99.1 µg/mL; in series [2] it was above 100 µg/mL; in series [3], above 100 µg/mL; in series [4] it was above 100 µg/mL.

In the case of `CO[C@H]1/C=C/O[C@@]2(C)Oc3c(C)c(O)c4c(O)c(c(/C=N/N5CCN(C)CC5)c(O)c4c3C2=O)NC(=O)/C(C)=C\C=C\[C@H](C)[C@H](O)[C@@H](C)[C@@H](O)[C@@H](C)[C@H](OC(C)=O)[C@@H]1C` [RIFAMPICIN, reference compound], the IC50 is 0.0018 µg/mL (≈ 0.00219 µM) in the series with M. Tuberculosis [5], 0.0021 µg/mL (≈ 0.00255 µM) in the series on M. Tuberculosis [6], 0.0014 µg/mL (≈ 0.0017 µM) in [7] (setting [9]) and 0.0018 µg/mL (≈ 0.00219 µM) in series [8] (setting [11]). In addition, the minimum inhibitory concentration (MIC) came out at 0.048 µg/mL (≈ 0.0583 µM) in the series with M. Tuberculosis [5], 0.051 µg/mL (≈ 0.062 µM) in the series with M. Tuberculosis [6], 0.043 µg/mL (≈ 0.0523 µM) in series [7] (setting [10]) and 0.048 µg/mL (≈ 0.0583 µM) in series [8] (setting [12]).

As for `CCCCCCc1cn([C@@H]2C(=O)[C@@]3(C)C(CCC3[C@H](C)CCC(=O)OC)C3C2[C@@]2(C)CC[C@@H](OC(C)=O)C[C@H]2C[C@H]3OC(C)=O)nn1` (stereo partly drawn) [Compound 2, (3R,5S,7R,10S,11S,13R)-11-(4-hexyl-1H-1,2,3-triazol-1-yl)-17-((R)-5-methoxy-5-oxopentan-2-yl)-10,13-dimethyl-12-oxohexadecahydro-1H-cyclopenta[a]phenanthrene-3,7-diyl diacetate], the IC50 was 0.13 µg/mL with M. Tuberculosis [5]; 6.59 µg/mL in series [1]; 0.25 µg/mL with M. Tuberculosis [6]; above 100 µg/mL in [2]; above 100 µg/mL in [3]; 0.17 µg/mL in series [7] (setting [9]). Moreover, the figures for the IC50 in series [8] (setting [11]) and in series [4] were 0.64 µg/mL and above 100 µg/mL, respectively. Further, the minimum inhibitory concentration (MIC) in the series on M. Tuberculosis [5] worked out at 1.55 µg/mL; against M. Tuberculosis [6], 2.8 µg/mL; in series [7] (setting [10]), 2.43 µg/mL; in series [8] (setting [12]), 2.63 µg/mL. For the same molecule, the IC90 in series [1], in series [2], in [3] and in [4] was above 100 µg/mL throughout.

Take `COC(=O)CC[C@@H](C)C1CCC2C3C([C@H](n4cc(-c5ccc(F)cc5)nn4)C(=O)[C@@]21C)[C@@]1(C)CC[C@@H](OC(C)=O)C[C@H]1C[C@H]3OC(C)=O` (stereo partly drawn) [Compound 3, (3R,5S,7R,10S,11S,13R)-11-(4-(4-fluorophenyl)-1H-1,2,3-triazol-1-yl)-17-((R)-5-methoxy-5-oxopentan-2-yl)-10,13-dimethyl-12-oxohexadecahydro-1H-cyclopenta[a]phenanthrene-3,7-diyl diacetate]: the IC50 in series [1] is 9.76 µg/mL; in series [2], above 100 µg/mL; in series [3], above 100 µg/mL; in series [4] it was above 100 µg/mL. For the same molecule, the IC90 in [1], in series [2], in [3] and in [4] was above 100 µg/mL each time.

Turning to `NNC(=O)c1ccncc1` [ISONIAZID, reference compound], the IC50 in the series on M. Tuberculosis [5] came to 0.0024 µg/mL (≈ 0.0175 µM); with M. Tuberculosis [6], 0.0024 µg/mL (≈ 0.0175 µM); in series [7] (H37RA), 0.0023 µg/mL (≈ 0.0168 µM); in series [8] (H37RA) it was 0.0019 µg/mL (≈ 0.0139 µM). For the same molecule, the MIC was 0.0078 µg/mL (≈ 0.0569 µM) in the series on M. Tuberculosis [5], 0.075 µg/mL (≈ 0.547 µM) in the series on M. Tuberculosis [6], 0.075 µg/mL (≈ 0.547 µM) in series [7] (H37RA) and 0.074 µg/mL (≈ 0.54 µM) in [8] (H37RA).

`CCOC(=O)N[C@@H]1C(=O)[C@@]2(C)C(CCC2[C@H](C)CCC(=O)OC)C2C1[C@@]1(C)CC[C@@H](OC(C)=O)C[C@H]1C[C@H]2OC(C)=O` (stereo partly drawn) [Compound 5, (3R,5S,7R,10S,11S,13R)-11-((ethoxycarbonyl)amino)-17-((R)-5-methoxy-5-oxopentan-2-yl)-10,13-dimethyl-12-oxohexadecahydro-1H-cyclopenta[a]phenanthrene-3,7-diyl diacetate] came in with a melting point of 82 to 85 °C. Besides, in [1], the IC50 worked out at 34.2 µg/mL and the IC90 was above 100 µg/mL. In addition, in series [2], the IC50 was above 100 µg/mL and the IC90 was above 100 µg/mL. Besides, in [3], the IC50 is above 100 µg/mL and the IC90 is above 100 µg/mL. In series [4], the IC50 is above 100 µg/mL and the IC90 was above 100 µg/mL.

With `COC(=O)CC[C@@H](C)C1CCC2C3C([C@H](n4cc(-c5ccccn5)nn4)C(=O)[C@@]21C)[C@@]1(C)CC[C@@H](OC(C)=O)C[C@H]1C[C@H]3OC(C)=O` (stereo partly drawn) [Compound 4, (3R,5S,7R,10S,11S,13R)-17-((R)-5-methoxy-5-oxopentan-2-yl)-10,13-dimethyl-12-oxo-11-(4-(pyridin-2-yl)-1H-1,2,3-triazol-1-yl)hexadecahydro-1H-cyclopenta[a]phenanthrene-3,7-diyl diacetate], the IC50 in series [1] is 15.2 µg/mL; in [2], above 100 µg/mL; in series [3] it was above 100 µg/mL; in [4], above 100 µg/mL. The IC90 is 85.9 µg/mL in [1], above 100 µg/mL in series [2], above 100 µg/mL in series [3] and above 100 µg/mL in [4].

For the origin of these results see patent publication US10000527B2, “11-substituted bile acid derivatives, process for the preparation thereof and use of these compounds as medicaments” (priority 2013, dated 2018).
